Test results published in patent US20170196859A1, “PHARMACEUTICAL COMPOSITION COMPRISING PYRAZINE CARBOXAMIDE COMPOUND AS ACTIVE INGREDIENT” (Astellas Pharma Inc., priority 2014, published 2017).

Legend:
Assay type in all cases: cell-based
[1] = tested on: human anaplastic large cell lymphoma cell line KARPAS-299 cells; test: Proliferation inhibition, KARPAS-299 cells (CellTiter-Glo); conditions: KARPAS-299, 72 h, 3 days culture
Protocol: KARPAS-299 is a cell line originated from human anaplastic large cell lymphoma and the activation of JAK 3 has been confirmed (Oncogene. 2002; 21:1038-1047). The human anaplastic large cell lymphoma cell line KARPAS-299 cells (DSMZ, ACC31) cultured in RPMI1640 medium (Sigma) containing a 10% bovine serum were seeded into 96 well plates. On the same day, DMSO solution of the test compound B at a final concentrations from 1 nM to 10 μM or only DMSO (DMSO group) were added thereto to culture the cells at 37° C. in 5% CO2 for 3 days. Thereafter, the cell number was measured using a cell counting reagent (CellTiter-Glo (registered trademark) Luminescent Cell Viability Assay (Promega)). The cell proliferation inhibition rate was calculated as the measured value in the DMSO group set as 0% inhibition and the measured value in the well only with the medium on which the cells have not been seeded set as 100% inhibition.

[2] = tested on: human lymphoblastic leukemia cell line MOLT-4 cells; test: Proliferation inhibition, MOLT-4 cells (CellTiter-Glo); conditions: MOLT-4, 96 h, 4 days culture
Protocol: MOLT-4 is a cell lines originated from human lymphoblastic leukemia and the ITK expression has been confirmed (Mol. Pharmacol. 2012; 82:938-947). The human lymphoblastic leukemia cell line MOLT-4 cells (European Collection of Cell Cultures, 85011413) cultured in RPMI1640 medium (Sigma) containing 10% bovine serum were inoculated into 96 well plates. On the same day, DMSO solutions of the test compound B at final concentrations from 1 nM to 10 μM or only DMSO (DMSO group) were added thereto to culture the cells at 37° C. in 5% CO2 for 4 days. Thereafter, the cell number was measured using a cell counting reagent (CellTiter-Glo (registered trademark) Luminescent Cell Viability Assay (Promega)). The cell proliferation inhibition rate was calculated as the measured value in the DMSO group set as 0% inhibition and the measured value in the well only with the medium on which the cells have not been seeded set as 100% inhibition.

[3] = tested on: human acute myeloid leukemia cell line KG-1 cells; test: Proliferation inhibition, KG-1 cells (CellTiter-Glo); conditions: KG-1, 72 h, 3 days culture
Protocol: KG-1 is a cell line originated from human acute myeloid leukemia and the BTK expression has been confirmed (J. Immunol. 1994; 152(2):557-565). The human acute myeloid leukemia cell line KG-1 cells (American Type Culture Collection, CCL-246) cultured in RPMI1640 medium (Sigma) containing 10% bovine serum were seeded into 96 well plates. On the next day, DMSO solutions of the test compound B at final concentrations from 1 nM to 10 μM or only DMSO (DMSO group) were added thereto to culture the cells at 37° C. in 5% CO2 for 3 days. Thereafter, the cell number was measured using a cell counting reagent (CellTiter-Glo (registered trademark) Luminescent Cell Viability Assay (Promega)). The cell proliferation inhibition rate was calculated as the measured value in the DMSO group set as 0% inhibition and the measured value in the well only with the medium on which the cells have not been seeded set as 100% inhibition.

- IC50 [1]: 250 nM
- IC50 [2]: 410 nM
- IC50 [3]: 38 nM
SMILES: C=CC(=O)N1CC[C@@H](Oc2nc(Nc3ccc(N4CCC(N5CCN(C)CC5)CC4)cc3)c(C(N)=O)nc2CC)C1 [test compound B, 5-{[(3R)-1-acryloylpyrrolidin-3-yl]oxy}-6-ethyl-3-({4-[4-(4-methylpiperazin-1-yl)piperidin-1-yl]phenyl}amino)pyrazine-2-carboxamide monomethanesulfonate]
